# Assay results reported in article PMC2697495 (The Journal of pharmacy and pharmacology, 2008).
# Marks after values point to notes of the source that are not given here.
# Columns and labels:
# Type in all cases: biochemical
# UGT2B7 = biological target: T1, UGT2B7 (Homo sapiens, UniProt P16662); test: Codeine glucuronidation by recombinant UGT2B7; conditions: 1 mM codeine, n=3
# T1 sequence (P16662 24-529): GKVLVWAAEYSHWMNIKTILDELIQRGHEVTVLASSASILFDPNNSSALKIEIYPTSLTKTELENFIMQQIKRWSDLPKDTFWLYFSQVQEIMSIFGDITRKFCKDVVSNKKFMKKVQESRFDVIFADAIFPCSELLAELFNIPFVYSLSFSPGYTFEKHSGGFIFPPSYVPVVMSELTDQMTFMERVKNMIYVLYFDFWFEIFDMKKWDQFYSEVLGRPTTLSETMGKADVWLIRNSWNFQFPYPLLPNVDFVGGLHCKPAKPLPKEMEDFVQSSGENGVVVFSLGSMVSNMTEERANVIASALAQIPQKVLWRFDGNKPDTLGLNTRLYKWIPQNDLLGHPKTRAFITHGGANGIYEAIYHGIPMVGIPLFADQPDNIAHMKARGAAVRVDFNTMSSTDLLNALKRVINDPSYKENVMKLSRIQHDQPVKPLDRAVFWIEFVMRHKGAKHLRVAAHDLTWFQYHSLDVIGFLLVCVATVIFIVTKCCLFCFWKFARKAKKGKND
# [1] = test system: pooled human liver microsomes (pHLMs); test: Estradiol-3 glucuronidation by pHLMs; conditions: for Estradiol-3 glucuronidation, % of the control activity (measured at 0 mM): pHLM, 100 μM estradiol, n=3
# UGT1A3 [2] = biological target: T2, UGT1A3 (Homo sapiens, UniProt P35503); test: Estradiol-3 glucuronidation by recombinant UGT1A3; conditions: for Estradiol-3 glucuronidation, % of the control activity (measured at 0 mM): UGT1A3, 100 μM estradiol, n=3
# T2 sequence (P35503 29-534): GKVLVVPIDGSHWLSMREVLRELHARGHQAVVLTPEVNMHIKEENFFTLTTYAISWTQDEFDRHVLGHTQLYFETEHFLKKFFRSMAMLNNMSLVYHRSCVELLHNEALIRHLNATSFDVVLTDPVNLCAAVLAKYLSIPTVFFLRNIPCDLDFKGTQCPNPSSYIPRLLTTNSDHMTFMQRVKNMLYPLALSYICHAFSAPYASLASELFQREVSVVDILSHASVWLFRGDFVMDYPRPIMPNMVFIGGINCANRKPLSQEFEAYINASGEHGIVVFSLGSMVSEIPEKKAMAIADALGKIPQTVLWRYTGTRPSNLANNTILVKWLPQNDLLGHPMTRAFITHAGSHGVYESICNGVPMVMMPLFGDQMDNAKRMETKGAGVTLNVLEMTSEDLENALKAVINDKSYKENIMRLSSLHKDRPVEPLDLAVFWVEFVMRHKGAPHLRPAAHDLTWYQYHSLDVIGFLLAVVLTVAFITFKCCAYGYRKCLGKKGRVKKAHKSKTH
# [3] = test system: pooled human liver microsomes (pHLMs); test: Estradiol-17 glucuronidation by pHLMs; conditions: pHLM, 100 μM estradiol, n=3
# UGT1A3 [4] = biological target: T2, UGT1A3; test: Estradiol-17 glucuronidation by recombinant UGT1A3; conditions: 100 μM estradiol, n=3
structure (smiles),measurement,setting,value
"O=C(O)[C@@H](O)[C@H]1OC(=O)[C@H](O)[C@H]1O [saccharolactone, D-saccharic acid 1,4-lactone]","Codeine glucuronidation, % of the control activity (measured at 0 mM)",UGT2B7; 5 mM saccharolactone,90±7%
same,"Codeine glucuronidation, % of the control activity (measured at 0 mM)",UGT2B7; 20 mM saccharolactone,90±3%
same,"Estradiol-3 glucuronidation, % of the control activity (measured at 0 mM)",[1]; 1 mM saccharolactone,68±5%
same,"Estradiol-3 glucuronidation, % of the control activity (measured at 0 mM)",[1]; 2 mM saccharolactone,84±1%
same,"Estradiol-3 glucuronidation, % of the control activity (measured at 0 mM)",[1]; 5 mM saccharolactone,76±9 ^a %
same,"Estradiol-3 glucuronidation, % of the control activity (measured at 0 mM)",[1]; 10 mM saccharolactone,67±5 ^a %
same,"Estradiol-3 glucuronidation, % of the control activity (measured at 0 mM)",[1]; 20 mM saccharolactone,67±7 ^a %
same,decrease in estradiol-3 glucuronidation activity,"[1]; pHLMs, 20 mM saccharolactone, p<0.05",33%
same,"Estradiol-3 glucuronidation, % of the control activity (measured at 0 mM)",UGT1A3 [2]; 5 mM saccharolactone,92±18%
same,"Estradiol-3 glucuronidation, % of the control activity (measured at 0 mM)",UGT1A3 [2]; 20 mM saccharolactone,97±10%
same,effect on estradiol glucuronidation,UGT1A3 [2]; recombinant UGT1A3,no effect
same,"Estradiol-17 glucuronidation, % of the control activity (measured at 0 mM)",[3]; 1 mM saccharolactone,71±4 ^a %
same,"Estradiol-17 glucuronidation, % of the control activity (measured at 0 mM)",[3]; 2 mM saccharolactone,81±8%
same,"Estradiol-17 glucuronidation, % of the control activity (measured at 0 mM)",[3]; 5 mM saccharolactone,78±7 ^a %
same,"Estradiol-17 glucuronidation, % of the control activity (measured at 0 mM)",[3]; 10 mM saccharolactone,68±2%
same,"Estradiol-17 glucuronidation, % of the control activity (measured at 0 mM)",[3]; 20 mM saccharolactone,66±6 ^a %
same,"Estradiol-17 glucuronidation, % of the control activity (measured at 0 mM)",UGT1A3 [4]; 5 mM saccharolactone,90±14%
same,"Estradiol-17 glucuronidation, % of the control activity (measured at 0 mM)",UGT1A3 [4]; 20 mM saccharolactone,98±10%
